From US20200264182A1, “METHOD FOR DETECTING PROSTATE CANCER” (J-OIL MILLS, INC., priority 2017, published 2020)

Experiment: FAC binding constant
Conditions: at 25° C.
Experimental: Details of the FAC method are described in Patent Document 2 filed by some of the present applicants, for example.
Binding constants (at 25° C.) of PhoSL, SRL, NSL and LSL belonging to the fucose α1→6 specific lectin for various sugar chains are shown in Tables 2 to 5.

With “SRL: fucose α1→6 specific lectin that can be extracted from Stropharia rugosoannulata, SEQ ID No. 2” the “Binding constant for sugar chain No. 313” value (sugar chain having no fucose) was <1000 M⁻¹, the “Binding constant for sugar chain No. 314” value (sugar chain having no fucose) was <1000 M⁻¹ and the “Binding constant for sugar chain No. 323” value (sugar chain having no fucose) was <1000 M⁻¹. The “Binding constant for sugar chain No. 501” value (sugar chain having no fucose) was <1000 M⁻¹, the “Binding constant for sugar chain No. 502” value (sugar chain having no fucose) was <1000 M⁻¹ and the “Binding constant for sugar chain No. 503” value (sugar chain having no fucose) was <1000 M⁻¹. The “Binding constant for sugar chain No. 504” value (sugar chain having no fucose) was <1000 M⁻¹, the “Binding constant for sugar chain No. 701” value (sugar chain having no fucose) was <1000 M⁻¹ and the “Binding constant for sugar chain No. 702” value (sugar chain having no fucose) was <1000 M⁻¹. The “Binding constant for sugar chain No. 703” value (sugar chain having no fucose) was <1000 M⁻¹, the “Binding constant for sugar chain No. 704” value (sugar chain having no fucose) was <1000 M⁻¹ and the “Binding constant for sugar chain No. 705” value (sugar chain having no fucose) was <1000 M⁻¹. The “Binding constant for sugar chain No. 706” value (sugar chain having no fucose) was <1000 M⁻¹, the “Binding constant for sugar chain No. 707” value (sugar chain having no fucose) was <1000 M⁻¹ and the “Binding constant for sugar chain No. 708” value (sugar chain having no fucose) was <1000 M⁻¹. The “Binding constant for sugar chain No. 709” value (sugar chain having no fucose) was <1000 M⁻¹, the “Binding constant for sugar chain No. 710” value (sugar chain having no fucose) was <1000 M⁻¹ and the “Binding constant for sugar chain No. 711” value (sugar chain having no fucose) was <1000 M⁻¹. The “Binding constant for sugar chain No. 712” value (sugar chain having no fucose) was <1000 M⁻¹, the “Binding constant for sugar chain No. 713” value (sugar chain having no fucose) was <1000 M⁻¹ and the “Binding constant for sugar chain No. 715” value (sugar chain having no fucose) was <1000 M⁻¹. The “Binding constant for sugar chain No. 716” value (sugar chain having no fucose) was <1000 M⁻¹, the “Binding constant for sugar chain No. 717” value (sugar chain having no fucose) was <1000 M⁻¹ and the “Binding constant for sugar chain No. 724” value (sugar chain having no fucose) was <1000 M⁻¹. For the same substance, the “Binding constant for sugar chain No. 725” value (sugar chain having no fucose) was <1000 M⁻¹, the “Binding constant for sugar chain No. 732” value (sugar chain having no fucose) was <1000 M⁻¹ and the “Binding constant for sugar chain No. 733” value (sugar chain having no fucose) was <1000 M⁻¹. For the same substance, the “Binding constant for sugar chain No. 734” value (sugar chain having no fucose) was <1000 M⁻¹, the “Binding constant for sugar chain No. 735” value (sugar chain having no fucose) was <1000 M⁻¹ and the “Binding constant for sugar chain No. 736” value (sugar chain having no fucose) was <1000 M⁻¹. The “Binding constant for sugar chain No. 737” value (sugar chain having no fucose) was <1000 M⁻¹, the “Binding constant for sugar chain No. 738” value (sugar chain having no fucose) was <1000 M⁻¹ and the “Binding constant for sugar chain No. 901” value (sugar chain having no fucose) was <1000 M⁻¹. For the same substance, the “Binding constant for sugar chain No. 902” value (sugar chain having no fucose) was <1000 M⁻¹, the “Binding constant for sugar chain No. 903” value (sugar chain having no fucose) was <1000 M⁻¹ and the “Binding constant for sugar chain No. 905” value (sugar chain having no fucose) was <1000 M⁻¹. The “Binding constant for sugar chain No. 906” value (sugar chain having no fucose) was <1000 M⁻¹, the “Binding constant for sugar chain No. 907” value (sugar chain having no fucose) was <1000 M⁻¹ and the “Binding constant for sugar chain No. 015” value (sugar chain having α1→6 fucose) was 49000 M⁻¹. The “Binding constant for sugar chain No. 201” value (sugar chain having α1→6 fucose) was 64000 M⁻¹, the “Binding constant for sugar chain No. 202” value (sugar chain having α1→6 fucose) was 61000 M⁻¹ and the “Binding constant for sugar chain No. 203” value (sugar chain having α1→6 fucose) was 52000 M⁻¹. The “Binding constant for sugar chain No. 401” value (sugar chain having α1→6 fucose) was 57000 M⁻¹, the “Binding constant for sugar chain No. 402” value (sugar chain having α1→6 fucose) was 44000 M⁻¹ and the “Binding constant for sugar chain No. 403” value (sugar chain having α1→6 fucose) was 56000 M⁻¹. The “Binding constant for sugar chain No. 404” value (sugar chain having α1→6 fucose) was 58000 M⁻¹, the “Binding constant for sugar chain No. 405” value (sugar chain having α1→6 fucose) was 54000 M⁻¹ and the “Binding constant for sugar chain No. 406” value (sugar chain having α1→6 fucose) was 38000 M⁻¹. The “Binding constant for sugar chain No. 407” value (sugar chain having α1→6 fucose) was 10000 M⁻¹, the “Binding constant for sugar chain No. 410” value (sugar chain having α1→6 fucose) was 39000 M⁻¹ and the “Binding constant for sugar chain No. 418” value (sugar chain having α1→6 fucose) was 4300 M⁻¹. The “Binding constant for sugar chain No. 601” value (sugar chain having α1→6 fucose) was 10000 M⁻¹ and the “Binding constant for sugar chain No. 602” value (sugar chain having α1→6 fucose) was 32000 M⁻¹.
